Assay results reported in publication PMC7433010, “Exploration of multi‐target effects of 3‐benzoyl‐5‐hydroxychromen‐2‐one in Alzheimer’s disease cell and mouse models” (Aging Cell, 2020).

Tests used:
NeuN = assay: Immunohistochemistry of NeuN in hippocampus of STZ‐treated 3 × Tg‐AD mice; format: in vivo, mouse; conditions: – STZ 100%
Description: Mice harboring APPSwe, PS1M146V, and […] transgenes (3×Tg-AD) (Oddo et al., 2003) were purchased from the Jackson Laboratory (004807; Bar Harbor, ME, USA). Six-month-old male homozygous 3×Tg-AD mice were group housed at 20–25°C and 60% relative humidity under a daily 12-h light/12-h dark cycle, with assess to food and water ad libitum. Mice were randomly divided into 3 groups: – streptozocin (STZ), STZ, and STZ/LM-031 (n = 10 per group). STZ-induced hyperglycemia was used to accelerate the development of AD phenotype (Chen et al., 2014). Briefly, the mice were fasted for 12 h each day prior to intraperitoneal (i.p.) injection of STZ ([…]; Sigma-Aldrich) or vehicle (0.1 M sodium citrate pH4.5) for 4 times (days 2, 3, 9, and 10) (Chen et al., 2019). Mouse body weight was measured and blood glucose level was measured on days 1, 8, 15, 22, and 29 using a blood glucose meter (Bioland Technology, Taipei, Taiwan). LM-031 (40 mg/kg) or vehicle (DMSO:Cremophor EL:0.9% saline = 1:2:7) was intraperitoneally injected every day for 22 days from days 15 to 36. All animal procedures were ethically approved by the Institutional Animal Care and Use Committee of National Taiwan Normal University, Taipei, Taiwan (Permit Number: 103002) and were conducted in compliance with the ARRIVE (Animal Research: Reporting In Vivo Experiments) guidelines.
Mouse brains were removed, postfixed in 4% paraformaldehyde overnight, and cryopreserved in 30% sucrose solution at 4°C. Series of coronal brain sections (30 µm) were cut in a cryostat (Leica RM2125 RTS, Leica, Wetzlar, Germany). Heat-induced antigen retrieval for immunohistochemistry (IHC) was performed using antigen retrieval buffer (pH9.0, Thermo Fisher Scientific) to break methylene bridges and expose antigenic sites, allowing antibodies to bind. […] The sections were then washed and detected by using the UltraVision™ Quanto detection system containing horseradish peroxidase and chromogenic diaminobenzidine substrate (Thermo Fisher Scientific). […]

[1] = tested on: STZ‐induced hyperglycemic 3 × Tg‐AD mice; assay: Y‐maze task in STZ‐treated 3 × Tg‐AD mice; format: in vivo, mouse; conditions: day 26; 40 mg/kg i.p.; STZ 53%, – STZ 63%
Description: Mice harboring APPSwe, PS1M146V, and […] transgenes (3×Tg-AD) (Oddo et al., 2003) were purchased from the Jackson Laboratory (004807; Bar Harbor, ME, USA). Six-month-old male homozygous 3×Tg-AD mice were group housed at 20–25°C and 60% relative humidity under a daily 12-h light/12-h dark cycle, with assess to food and water ad libitum. Mice were randomly divided into 3 groups: – streptozocin (STZ), STZ, and STZ/LM-031 (n = 10 per group). STZ-induced hyperglycemia was used to accelerate the development of AD phenotype (Chen et al., 2014). […] Mouse body weight was measured and blood glucose level was measured on days 1, 8, 15, 22, and 29 using a blood glucose meter (Bioland Technology, Taipei, Taiwan). […]
A Y-maze composed of three equally spaced arms (40 cm long, 30 cm high, and 15 cm wide) was used to assess spontaneous alternation behavior. On day 26, each mouse was placed in one of the arm compartments and was allowed to move freely for 8 min; the number of entries and the sequence of arms entered were recorded. Spatial working memory was assessed through the spontaneous alternation performances of a Y-maze exploration as described (Maurice et al., 1994). […] The percent of spontaneous alternation behavior was calculated as the ratio of actual alternation to possible alternations (total arm entries – 2) × 100.

pCREB (S133) = assay: Western blot of pCREB (S133) in ∆K280 TauRD‐DsRed SH‐SY5Y cells; format: cell-based, human; conditions: 1 µM; induced untreated 78%, uninduced 100%
Description: To knock down CREB expression in ∆K280 TauRD-DsRed SH-SY5Y cells, lentiviral short hairpin RNA (shRNA) targeting CREB (TRCN0000226466), NRF2 (TRCN0000007558), and a negative control scrambled (TRC2.Void) were obtained from National RNAi Core Facility, IMB/GRC, Academia Sinica, Taipei, Taiwan. On day 1, cells were plated on 6-well plates (for protein analysis) or 24-well plates (for neurite outgrowth analysis) in the presence of retinoic acid as described. On the second day, the cells were infected with lentivirus (multiplicity of infection: 3) in medium with polybrene (8 µg/mL; Sigma-Aldrich). […] On day 9, the cells were collected for NRF2, CREB, pCREB, and cleaved CASP3 protein analysis or analyzed for neurite outgrowth as described.
Total proteins from ∆K280 TauRD-DsRed SH-SY5Y cells were obtained using a RIPA buffer containing 50 mM Tris-HCl (pH8.0), 150 mM NaCl, 2 mM EDTA (pH8.0), 50 mM NaF, 0.1% SDS, 0.5% sodium deoxycholate, 1% NP40, and a protease inhibitor cocktail (Sigma-Aldrich). […] Protein concentrations were determined using a protein assay kit (Bio-Rad, Hercules, CA, USA), with albumin as a standard. […] Subsequently, immune complexes were detected using a horseradish peroxidase-conjugated goat anti-mouse or goat anti-rabbit IgG antibody (1:5000; GeneTex, Irvive, CA, USA) and a chemiluminescent substrate (Millipore).

## O=C(c1ccccc1)c1cc2c(O)cccc2oc1=O [LM‐031, 3‐benzoyl‐5‐hydroxychromen‐2‐one]
NeuN; STZ 89%
  NeuN level, CA1: 96%
NeuN; STZ 90%
  NeuN level, dentate gyrus (DG): 97%
NeuN; STZ 91%
  NeuN level, CA3: 95%
[1]
  Y‐maze alternation rate: 72%
pCREB (S133)
  pCREB (S133) protein level: 124%
